One experiment addresses T1, IKKε (Homo sapiens, UniProt Q14164).
T1 sequence (Q14164 1-716): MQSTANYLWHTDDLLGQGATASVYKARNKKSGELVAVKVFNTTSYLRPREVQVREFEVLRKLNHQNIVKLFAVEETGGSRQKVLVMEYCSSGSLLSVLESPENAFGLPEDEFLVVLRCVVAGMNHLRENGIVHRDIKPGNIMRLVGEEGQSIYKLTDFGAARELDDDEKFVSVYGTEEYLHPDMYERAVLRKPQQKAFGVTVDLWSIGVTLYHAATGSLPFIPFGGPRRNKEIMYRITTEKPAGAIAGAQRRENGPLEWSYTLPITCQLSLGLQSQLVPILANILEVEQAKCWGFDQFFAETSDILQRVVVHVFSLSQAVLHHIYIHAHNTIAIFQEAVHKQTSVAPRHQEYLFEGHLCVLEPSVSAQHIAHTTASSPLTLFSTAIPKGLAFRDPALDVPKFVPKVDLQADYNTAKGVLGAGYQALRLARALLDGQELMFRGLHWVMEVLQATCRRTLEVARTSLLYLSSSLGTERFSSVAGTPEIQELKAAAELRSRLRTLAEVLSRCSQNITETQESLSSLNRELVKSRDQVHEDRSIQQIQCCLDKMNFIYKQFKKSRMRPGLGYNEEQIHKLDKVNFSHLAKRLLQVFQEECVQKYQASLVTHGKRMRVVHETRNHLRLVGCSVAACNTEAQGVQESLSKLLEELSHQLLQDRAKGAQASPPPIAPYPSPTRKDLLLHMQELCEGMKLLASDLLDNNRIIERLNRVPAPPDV
The experiment is described as follows: IKKe Biochemical Assay. The following applies: read-out: IKKε IC50. A digest of the protocol: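 Recombinant IKKε and substrate were incubated with compound (10-point 1:4 series, top 30 uM final, 1% DMSO) for 90 min at 25° C, then stopped. Substrate-to-product conversion was read by LabChip microfluidic mobility shift; 10 uM staurosporine served as full-inhibition wells.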

Experiment [1] relates to phosphorylation of the IRF-3 protein in MDA-MB-468 cells. The experiment is described as follows: pIRF3 immunocytochemistry cell based assay. The conditions noted are these: Homo sapiens; MDA-MB-468 cells, Poly(I:C) stimulation; read-out: pIRF3 IC50. A digest of the protocol: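 MDA-MB-468 cells got compounds (10-point, 3-fold from 10 uM) for 1 h at 37 °C, then 10 ug/ml Poly(I:C) for 2 h. Fixed, permeabilized cells were immunostained for pIRF3 with AlexaFluor488 and counterstained with PI. % phosphorylation was read by laser scanning cytometry, and IC50 curves were fitted.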

The target in a further experiment is T2, TBK1 (Homo sapiens, UniProt Q9UHD2).
T2 sequence (Q9UHD2 1-729): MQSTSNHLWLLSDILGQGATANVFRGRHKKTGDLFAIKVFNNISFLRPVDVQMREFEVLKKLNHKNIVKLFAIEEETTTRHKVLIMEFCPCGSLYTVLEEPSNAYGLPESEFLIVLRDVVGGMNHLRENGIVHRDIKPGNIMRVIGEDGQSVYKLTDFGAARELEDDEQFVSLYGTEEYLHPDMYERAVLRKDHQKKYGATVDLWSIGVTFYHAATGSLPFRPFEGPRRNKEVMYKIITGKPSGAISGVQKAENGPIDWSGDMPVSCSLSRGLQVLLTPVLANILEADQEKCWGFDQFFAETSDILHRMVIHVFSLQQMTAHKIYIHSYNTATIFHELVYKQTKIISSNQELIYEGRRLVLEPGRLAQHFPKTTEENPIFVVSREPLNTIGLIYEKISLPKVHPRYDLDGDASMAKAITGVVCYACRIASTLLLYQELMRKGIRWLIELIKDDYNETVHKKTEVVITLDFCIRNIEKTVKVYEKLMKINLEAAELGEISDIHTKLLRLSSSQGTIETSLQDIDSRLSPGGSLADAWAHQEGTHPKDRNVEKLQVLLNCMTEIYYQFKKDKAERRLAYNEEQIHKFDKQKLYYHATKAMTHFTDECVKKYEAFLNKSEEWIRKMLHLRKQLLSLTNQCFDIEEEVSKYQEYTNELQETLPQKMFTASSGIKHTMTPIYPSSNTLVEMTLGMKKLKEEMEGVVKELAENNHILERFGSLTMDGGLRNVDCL
Kind of experiment: TBK Biochemical Assay. The following applies: read-out: TBK1 IC50. A digest of the protocol:
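TBK1 enzyme and substrate incubated with compounds (10-point 1:4 dilution, top 30 uM final, 1% DMSO) for 90 min at 25° C, then stopped. Substrate/product peaks read by microfluidic mobility-shift (Caliper LabChip); 10 uM staurosporine as full-inhibition control.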

The structures appear in SMILES notation. Counter-ions that a name gives are not always drawn. Bounds are passed on as bounds.

This note sets out measurements from patent US10428080B2, “TBK/IKK inhibitor compounds and uses thereof” (Merck Patent GmbH, priority 2015, dated 2019).

What is called IC50 is the concentration needed to halve the response being measured.

For the compound `COc1cc(C(=O)N(C)C)ccc1-c1cc2nccc(-c3ccc(NC4CCOCC4F)c(C#N)c3)c2o1` (stereo not drawn) [Compound 78], the IC50 is less than 100 nM on IKKε, 100 to 1000 nM in experiment [1] and less than 100 nM at TBK1.

On to `COc1cc(C(=O)NC2CN3CCC2CC3)ccc1-c1cc2nccc(-c3ccc(OC4CCOCC4)c(C#N)c3)c2o1` (stereo not drawn) [Compound 79, N-(1-Aza-bicyclo[2.2.2]oct-3-yl)-4-{7-[3-cyano-4-(tetrahydro-pyran-4-yloxy)-phenyl]-furo[3,2-b]pyridin-2-yl}-3-methoxy-benzamide], for which the IC50 on IKKε is less than 100 nM; in experiment [1], 100 to 1000 nM; on TBK1, less than 100 nM.

As for `COc1cc(C(=O)NOC2COC2)ccc1-c1cc2nccc(-c3ccc(OC4CCOCC4)c(C#N)c3)c2o1` [Compound 80, 4-{7-[3-Cyano-4-(tetrahydro-pyran-4-yloxy)-phenyl]-furo[3,2-b]pyridin-2-yl}-3-methoxy-N-(oxetan-3-yloxy)-benzamide], the values for the IC50 (at IKKε; in experiment [1]; at TBK1) were less than 100 nM, 100 to 1000 nM and less than 100 nM, respectively.

Turning to `COc1cc(C(=O)N(C)C)ccc1-c1cc2nccc(-c3ccc(NC4CCOCC4O)c(C#N)c3)c2o1` (stereo not drawn) [Compound 82], the IC50 at IKKε is less than 100 nM; in experiment [1], 100 to 1000 nM; on TBK1 it was less than 100 nM.

With `COc1cc(C(=O)NC2C3CNCC32)ccc1-c1cc2nccc(-c3ccc(OC4CCOCC4)c(C#N)c3)c2o1` (stereo not drawn) [Compound 84, N-(3-Aza-bicyclo[3.1.0]hex-6-yl)-4-{7-[3-cyano-4-(tetrahydro-pyran-4-yloxy)-phenyl]-furo[3,2-b]pyridin-2-yl}-3-methoxy-benzamide hydrochloride], the values for the IC50 (at IKKε; in experiment [1]; at TBK1) were less than 100 nM, 100 to 1000 nM and less than 100 nM, respectively.

Consider `COc1cc(C(=O)NC2CN3CCC2CC3)ccc1-c1cc2nccc(-c3ccc(N4CCC(F)C4)c(C#N)c3)c2o1` (stereo not drawn) [Compound 87, N-(1-Aza-bicyclo[2.2.2]oct-3-yl)-4-{7-[3-cyano-4-(3-fluoro-pyrrolidin-1-yl)-phenyl]-furo[3,2-b]pyridin-2-yl}-3-methoxy-benzamide], for which the IC50 on IKKε was less than 100 nM; in experiment [1], 100 to 1000 nM; at TBK1, less than 100 nM.

Take `COc1cc(C(=O)O)ccc1-c1cc2nccc(-c3ccc(NC4CCOCC4)c(C#N)c3)c2o1` [Compound 88]: the results for the IC50 (on IKKε; in experiment [1]; on TBK1) were less than 100 nM, 100 to 1000 nM and less than 100 nM, respectively.

Turning to `COc1cc(C(=O)N(C)C)ccc1-c1cc2nccc(-c3ccc(OC4CCOC4)c(C#N)c3)c2o1` (stereo not drawn) [Compound 90, 4-{7-[3-Cyano-4-(tetrahydro-furan-3-yloxy)-phenyl]-furo[3,2-b]pyridin-2-yl}-3-methoxy-N,N-dimethyl-benzamide], the values for the IC50 (on IKKε; in experiment [1]; on TBK1) were less than 100 nM, 100 to 1000 nM and less than 100 nM, respectively.

On to `COc1cc(C(=O)N2CCC(CO)C2)ccc1-c1cc2nccc(-c3ccc(NC4CCOCC4)c(C#N)c3)c2o1` (stereo not drawn) [Compound 91, 5-{2-[4-(3-Hydroxymethyl-pyrrolidine-1-carbonyl)-2-methoxy-phenyl]-furo[3,2-b]pyridin-7-yl}-2-(tetrahydro-pyran-4-ylamino)-benzonitrile], for which the IC50 was less than 100 nM at IKKε, 100 to 1000 nM in experiment [1] and less than 100 nM on TBK1.

For the compound `COc1cc(C(=O)NCC2CCNCC2)ccc1-c1cc2nccc(-c3ccc(OC4CCOCC4)c(C#N)c3)c2o1` [Compound 92, 4-{7-[3-Cyano-4-(tetrahydro-pyran-4-yloxy)-phenyl]-furo[3,2-b]pyridin-2-yl}-3-methoxy-N-piperidin-4-ylmethyl-benzamide hydrochloride], the IC50 at IKKε is less than 100 nM; in experiment [1], 100 to 1000 nM; on TBK1 it was less than 100 nM.

On to `COc1cc(C(=O)N(C)C)ccc1-c1cc2nccc(-c3ccc(OCC4CCOC4)c(C#N)c3)c2o1` (stereo not drawn) [Compound 93, 4-{7-[3-Cyano-4-(tetrahydro-furan-3-ylmethoxy)-phenyl]-furo[3,2-b]pyridin-2-yl}-3-methoxy-N,N-dimethyl-benzamide], for which the IC50 is less than 100 nM at IKKε, 100 to 1000 nM in experiment [1] and less than 100 nM at TBK1.

Take `COc1cc(C(=O)NC2CNCC(F)(F)C2)ccc1-c1cc2nccc(-c3ccc(OC4CCOCC4)c(C#N)c3)c2o1` (stereo not drawn) [Compound 98, 4-{7-[3-Cyano-4-(tetrahydro-pyran-4-yloxy)-phenyl]-furo[3,2-b]pyridin-2-yl}-N-(5,5-difluoro-piperidin-3-yl)-3-methoxy-benzamide hydrochloride]: the IC50 is less than 100 nM at IKKε, 100 to 1000 nM in experiment [1] and less than 100 nM on TBK1.

On to `COc1cc(C(=O)N2CC(O)C2)ccc1-c1cc2nccc(-c3ccc(NC4CCOCC4)c(C#N)c3)c2o1` [Compound 101, 5-{2-[4-(3-Hydroxy-azetidine-1-carbonyl)-2-methoxy-phenyl]-furo[3,2-b]pyridin-7-yl}-2-(tetrahydro-pyran-4-ylamino)-benzonitrile], for which the 50% inhibitory concentration (IC50) on IKKε is less than 100 nM; in experiment [1], 100 to 1000 nM; on TBK1 it was less than 100 nM.

For `COc1cc(C(=O)N2CCC(O)C2)ccc1-c1cc2nccc(-c3ccc(NC4CCOCC4)c(C#N)c3)c2o1` (stereo not drawn) [Compound 104, 5-{2-[4-(3-Hydroxy-pyrrolidine-1-carbonyl)-2-methoxy-phenyl]-furo[3,2-b]pyridin-7-yl}-2-(tetrahydro-pyran-4-ylamino)-benzonitrile], the IC50 at IKKε was less than 100 nM; in experiment [1] it was 100 to 1000 nM; at TBK1, less than 100 nM.

For the compound `COc1cc(C(=O)N(C)C)ccc1-c1cc2nccc(-c3ccc(OC4CCCOC4)c(C#N)c3)c2o1` (stereo not drawn) [Compound 105, 4-{7-[3-Cyano-4-(tetrahydro-pyran-3-yloxy)-phenyl]-furo[3,2-b]pyridin-2-yl}-3-methoxy-N,N-dimethyl-benzamide], the concentration for half-maximal inhibition (IC50) at IKKε was less than 100 nM; in experiment [1], 100 to 1000 nM; at TBK1, less than 100 nM.

As to `CN(C)C(=O)c1ccc(-c2cc3nccc(-c4ccc(N5CC[C@H](F)C5)c(C#N)c4)c3o2)cc1` [Compound 106, 4-{7-[3-Cyano-4-((S)-3-fluoro-pyrrolidin-1-yl)-phenyl]-furo[3,2-b]pyridin-2-yl}-N,N-dimethyl-benzamide], the results for the IC50 (at IKKε; in experiment [1]; at TBK1) were less than 100 nM, 100 to 1000 nM and less than 100 nM, respectively.

For `COc1cc(C(=O)N(C)C)ccc1-c1cc2nccc(-c3ccc(OC4CCNC4)c(C#N)c3)c2o1` (stereo not drawn) [Compound 108, 4-{7-[3-Cyano-4-(pyrrolidin-3-yloxy)-phenyl]-furo[3,2-b]pyridin-2-yl}-3-methoxy-N,N-dimethyl-benzamide], the IC50 (on IKKε; in experiment [1]; at TBK1) was less than 100 nM throughout.

In the case of `COc1cc(C(=O)N(C)C)ccc1-c1cc2nccc(-c3cnc(OC4CCOCC4)c(C#N)c3)c2o1` [Compound 109, 4-{7-[5-Cyano-6-(tetrahydro-pyran-4-yloxy)-pyridin-3-yl]-furo[3,2-b]pyridin-2-yl}-3-methoxy-N,N-dimethyl-benzamide], the IC50 on IKKε was less than 100 nM; in experiment [1] it was 100 to 1000 nM; on TBK1, less than 100 nM.
